Source: the supplement of paper PMC10307832

Legend:
Assay in all cases: relative viability (nuclei count vs DMSO), 5 days (fraction); higher = more cells survive
Linifanib + AZD7762 = compound: Cc1ccc(F)c(NC(=O)Nc2ccc(-c3cccc4[nH]nc(N)c34)cc2)c1 [Linifanib] + NC(=O)Nc1cc(-c2cccc(F)c2)sc1C(=O)N[C@H]1CCCNC1 [AZD7762] (partner 0.2 µM)
Procedure, shortened: (§1)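 Lung cancer cell lines were pin-tool dosed in 1536-well plates on the day after seeding, with either a lone drug or a fixed anchor-drug dose plus five library-drug doses (not always all listed) in √10 steps. Nuclei were counted on 4× images after 5 days. Relative viability is the ratio of treated-well to vehicle-well nuclei counts, with each value a median of duplicate plates.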

Linifanib + Vorinostat = compound: Cc1ccc(F)c(NC(=O)Nc2ccc(-c3cccc4[nH]nc(N)c34)cc2)c1 [Linifanib] + O=C(CCCCCCC(=O)Nc1ccccc1)NO [Vorinostat] (partner 1 µM)
Procedure, shortened: as §1

Linifanib + Pictilisib = compound: Cc1ccc(F)c(NC(=O)Nc2ccc(-c3cccc4[nH]nc(N)c34)cc2)c1 [Linifanib] + CS(=O)(=O)N1CCN(Cc2cc3nc(-c4cccc5[nH]ncc45)nc(N4CCOCC4)c3s2)CC1 [Pictilisib] (partner 1 µM)
Procedure, shortened: as §1

Linifanib + Decitabine = compound: Cc1ccc(F)c(NC(=O)Nc2ccc(-c3cccc4[nH]nc(N)c34)cc2)c1 [Linifanib] + Nc1ncn([C@H]2C[C@H](O)[C@@H](CO)O2)c(=O)n1 [Decitabine] (partner 2 µM)
Procedure, shortened: as §1

Linifanib + Linsitinib = compound: Cc1ccc(F)c(NC(=O)Nc2ccc(-c3cccc4[nH]nc(N)c34)cc2)c1 [Linifanib] + C[C@]1(O)C[C@@H](c2nc(-c3ccc4ccc(-c5ccccc5)nc4c3)c3c(N)nccn32)C1 [Linsitinib] (partner 1 µM)
Procedure, shortened: as §1

Linifanib + Dasatinib = compound: Cc1ccc(F)c(NC(=O)Nc2ccc(-c3cccc4[nH]nc(N)c34)cc2)c1 [Linifanib] + Cc1nc(Nc2ncc(C(=O)Nc3c(C)cccc3Cl)s2)cc(N2CCN(CCO)CC2)n1 [Dasatinib] (partner 0.075 µM)
Procedure, shortened: as §1

| Cell Line | relative viability (Linifanib + AZD7762; first compound 0.03162 µM) | relative viability (Linifanib + AZD7762; first compound 0.1 µM) | relative viability (Linifanib + AZD7762; first compound 0.3162 µM) | relative viability (Linifanib + Vorinostat; first compound 0.03162 µM) | relative viability (Linifanib + Vorinostat; first compound 0.1 µM) | relative viability (Linifanib + Vorinostat; first compound 0.3162 µM) | relative viability (Linifanib + Pictilisib; first compound 0.03162 µM) | relative viability (Linifanib + Pictilisib; first compound 0.1 µM) | relative viability (Linifanib + Pictilisib; first compound 0.3162 µM) | relative viability (Linifanib + Decitabine; first compound 0.03162 µM) | relative viability (Linifanib + Decitabine; first compound 0.1 µM) | relative viability (Linifanib + Decitabine; first compound 0.3162 µM) | relative viability (Linifanib + Linsitinib; first compound 0.03162 µM) | relative viability (Linifanib + Linsitinib; first compound 0.1 µM) | relative viability (Linifanib + Linsitinib; first compound 0.3162 µM) | relative viability (Linifanib + Dasatinib; first compound 0.03162 µM) | relative viability (Linifanib + Dasatinib; first compound 0.1 µM) | relative viability (Linifanib + Dasatinib; first compound 0.3162 µM) |
| --- | --- | --- | --- | --- | --- | --- | --- | --- | --- | --- | --- | --- | --- | --- | --- | --- | --- | --- |
| NCI-H2085 | 1.08 | 0.943 | 0.974 | 0.854 | 0.832 | 0.792 | 0.426 | 0.711 | 0.484 | 0.535 | 0.632 | 0.573 | 0.895 | 0.913 | 0.835 | 0.252 | 0.239 | 0.268 |
| SK-MES-1 | – | – | – | 1.13 | 1.05 | 1.05 | 0.369 | 0.338 | 0.398 | 0.352 | 0.408 | 0.36 | 1.04 | 1.12 | 1.03 | 0.336 | 0.455 | 0.388 |
| SW 1573 | – | – | – | 0.909 | 0.93 | 0.594 | 0.43 | 0.517 | 0.417 | 0.514 | 0.604 | 0.584 | 0.853 | 0.845 | 0.743 | 0.578 | 0.931 | 0.539 |
| BEN | 0.693 | 0.78 | 0.764 | 0.622 | 0.558 | 0.667 | 0.516 | 0.606 | 0.581 | 0.772 | 0.818 | 0.696 | 0.842 | 0.896 | 0.83 | 0.318 | 0.34 | 0.316 |
| ChaGo-K-1 | 0.881 | 0.881 | 0.925 | 0.767 | 0.807 | 0.775 | 0.697 | 0.783 | 0.741 | 0.497 | 0.531 | 0.509 | – | – | – | 0.721 | 0.727 | 0.558 |
| EKVX | 0.78 | 0.873 | 0.808 | 0.731 | 0.774 | 0.75 | 0.508 | 0.512 | 0.454 | 0.314 | 0.359 | 0.35 | 1.11 | 1.03 | 0.868 | 0.662 | 0.662 | 0.547 |
| HARA | 0.402 | 0.445 | 0.387 | 0.598 | 0.479 | 0.579 | 0.337 | 0.52 | 0.3 | 0.599 | 0.61 | 0.61 | 0.991 | 0.931 | 0.939 | 0.234 | 0.335 | 0.285 |
| NCI-H520 | – | – | – | 0.669 | 0.769 | 0.643 | 0.29 | 0.304 | 0.315 | 0.461 | 0.6 | 0.542 | 1.07 | 1 | 0.811 | 0.19 | 0.206 | 0.208 |
| COR-L23 | – | – | – | 0.462 | 0.402 | 0.384 | 0.754 | 0.717 | 0.686 | 0.448 | 0.455 | 0.396 | 0.933 | 1.01 | 0.815 | 0.532 | 0.647 | 0.418 |
| NCI-H2228 | – | – | – | 0.794 | 0.808 | 0.603 | 0.415 | 0.64 | 0.386 | – | – | – | 0.648 | 0.705 | 0.5 | 0.541 | 0.556 | 0.538 |
| SK-LU-1 | – | – | – | 0.74 | 0.749 | 0.828 | 0.529 | 0.602 | 0.542 | 0.672 | 0.645 | 0.669 | 0.932 | 1.02 | 0.981 | 0.205 | 0.196 | 0.193 |
| CAL-12T | 0.623 | 0.661 | 0.588 | 0.884 | 0.986 | 0.724 | 0.439 | 0.478 | 0.33 | – | – | – | 0.905 | 0.722 | 0.755 | 0.457 | 0.508 | 0.343 |
| SW 900 | 0.523 | 0.656 | 0.533 | 0.57 | 0.603 | 0.485 | – | – | – | 0.478 | 0.515 | 0.474 | – | – | – | 0.824 | 0.548 | 0.578 |
| HCC-44 | 1.09 | 0.914 | 1.04 | 1.22 | 1.04 | 1.14 | 0.605 | 0.674 | 0.595 | 0.984 | 0.862 | 0.961 | 0.741 | 0.71 | 0.664 | – | – | – |
| NCI-H2342 | 0.506 | 0.506 | 0.625 | 0.825 | 0.771 | 0.734 | – | – | – | 0.732 | 0.713 | 0.768 | – | – | – | 0.333 | 0.331 | 0.332 |
| NCI-H2170 | 0.831 | 0.954 | 0.843 | 0.806 | 0.814 | 0.823 | 0.297 | 0.332 | 0.304 | 0.472 | 0.448 | 0.453 | – | – | – | 0.662 | 0.611 | 0.579 |
| NCI-H661 | – | – | – | 0.792 | 0.751 | 0.75 | 0.424 | 0.487 | 0.38 | 0.559 | 0.626 | 0.582 | 0.505 | 0.676 | 0.467 | 1.07 | 0.983 | 0.871 |
| UMC-11 | – | – | – | 0.334 | 0.315 | 0.354 | 0.859 | 0.865 | 0.819 | 0.585 | 0.562 | 0.581 | 0.921 | 1.06 | 0.911 | 0.42 | 0.491 | 0.466 |
| NCI-H1650 | – | – | – | 0.528 | 0.602 | 0.655 | 0.661 | 0.671 | 0.5 | 0.482 | 0.407 | 0.37 | – | – | – | 0.327 | 0.348 | 0.252 |
| NCI-H2009 | – | – | – | 0.695 | 0.781 | 0.743 | 0.873 | 0.973 | 0.835 | 0.371 | 0.41 | 0.378 | 1.15 | 1.19 | 1.13 | 0.323 | 0.358 | 0.304 |
